In paper PMC7796031, “Studies of Coumarin Derivatives for Constitutive Androstane Receptor (CAR) Activation” (Molecules, 2020):

Columns and labels:
bile salt export pump = system: bile salt export pump; design: method as in PMID 21649640; settings: scoparone 10 μM with chenodeoxycholic acid 10 μM; cited from earlier work
UGT1A1 = test: mRNA expression of UGT1A1 in Hep3B (RT-PCR); type: cell-based, human; settings: 10 μM, 2, 4, 6, 8 and 10 h
Protocol: (§1) Figure 6 The time course study of mRNA expression of MRP2 and UGT1A1 after 10 μM 6,7-diprenoxycoumarin treatment. Hep3B cells were treated with 10 μM 50 for 2, 4, 6, 8 and 10 h. The total mRNA was obtained and the expression of downstream genes were analyzed with PCR. The ratio of MRP2 to GAPDH was calculated using Image J and normalization.
(§2) Total RNA was isolated from control and treated cells using a TRIzol reagent (Invitrogen) according to the manufacturer’s instruction. The RNA concentration was measured by a spectrophotometer and equal amounts of total RNA (2 μg) were reverse—transcribed using a RevertAid First Strand cDNA Synthesis Kit (K1622, Fermentas, Hanover, MD, USA). Amplification of cDNA was performed in the PCR reaction buffer (0.2 mM dNTP, 1.5 mM MgCl2, and 0.5 μM of each primer) containing 2.5 units of Taq DNA polymerase. The PCR products were resolved by agarose electrophoresis, visualized by ethidium bromide straining and quantified by Image J®. The PCR cycling procedures and sequences of primers are listed below. PCR conditions: (1) UGT1A1: 94 °C, 30 s; 62 °C, 45 s; 72 °C, 30 s; 27 cycles; (2) MRP2: 94 °C, 30 s; 62 °C, 45 s; 72 °C, 30 s; 27 cycles; (3) CAR: 94 °C, 30 s; 59 °C, 45 s; 72 °C, 30 s; 35 cycles; (4) GADPH: 94 °C, 30 s; 62 °C, 45 s; 72 °C, 30 s; 27 cycles; (4) gtPBREM: 94 °C, 30 s; 63 °C, 30 s; 68 °C, 60 s; 30 cycles.

CAR protein = test: Immunofluorescence staining for CAR translocation in Hep3B cells; type: cell-based, human; settings: 10 μM, 2 h
Protocol: Figure 3 Image of immunofluorescence staining for CAR translocation in Hep3B cells after 6,7-diprenoxycoumarin (50) treatment (A) and scoparone treatment (C). Hep3B cells were treated with 50 (10 μM) for 2 h. The negative control group was pre-treated with 10 nM okadaic acid (OA). The blue and green fluorescence stands for signals of nuclei and CAR protein, respectively. The protein expression of nuclear CAR after 6,7-diprenoxycoumarin (50) treatment for 2 h (B).
Hep3B cells (4 × 10^5) were grown on coverslips for overnight then washed twice with 1× PBS and fixed with 4% paraformaldehyde in 1× PBS for 30 min at room temperature. Cells were then permeabilized with 1× PBS containing 0.1% (v/v) Triton X-100 for 10–15 min and blocked in 1× PBS containing 5% BSA for 1 h at room temperature. CAR antibody (1:200 dilutions) was added and reacted at room temperature for 2 h in 1× PBS containing 5% BSA. FITC-conjugated goat anti-rabbit IgG antibody was added for another 1 h at room temperature. Coverslips were mounted and images were acquired under a fluorescence microscope.

MRP2 = test: mRNA expression of MRP2 in Hep3B (RT-PCR); type: cell-based, human; settings: 10 μM, 2, 4, 6, 8 and 10 h
Protocol: as §1, §2

methyl-PP2Ac = test: PP2Ac methylation status in Hep3B (western blot); type: cell-based, human; settings: Hep3B, 5, 10, 20 and 40 μM, 24 h
Protocol: Figure 5 The concentration-dependent study of PP2Ac methylation status under 6,7-diprenoxycoumarin (50) treatment. Hep3B cells (1 × 10^6) were treated with 50 (5, 10, 20 and 40 μM) for 24 h. Treated cell lysates were prepared as described in the Methods section and methyl-PP2Ac expression was analyzed by western blot.
1 × 10^6 cells were seeded in a 10 cm plate, incubated at 37 °C for overnight and treated with various concentrations of compounds for the indicated times. After incubation, the culture medium was removed and washed twice with 2 mL ice-cold 1× PBS. Three hundred μL of protein lysis buffer (150 mM NaCl, 50 mM Tris-HCl (pH 7.4), 1% SDS, 1% Triton X-100, 1 mM PMSF) was added into each plate, scraped with a rubber policeman, collected into a premarked microtube and the incubated in ice for 1 h, sonicated by Ultrasonic Cell Disruptor for three time at 5 s each. The cell lysated was cleared by centrifugation at 12,000× g for 15 min at 4 °C. Supernatants were transferred into a fresh marked microtube and stored at −20 °C for future use.
Protein concentration of each sample was determined using a BCA Protein Assay Kit (Pirece®, Thermo Scientific). Different percentages of SDS-PAGE gels were prepared according to the molecular size of proteins of interest. […] The emitted fluorescence from the membrane was caught on a LAS-4000 biomolecule imager (FUJI.).

Row | SMILES | effect on chenodeoxycholic acid-increased expression of bile salt export pump (bile salt export pump) | mRNA expression level of UGT1A1 (UGT1A1) | translocation of CAR protein (CAR protein) | mRNA expression level of MRP2 (MRP2) | methyl-PP2Ac (active form of PP2Ac) (methyl-PP2Ac)
1 | COc1cc2ccc(=O)oc2cc1OC [Compound 39, scoparone] | potentiated |  |  |  | 
2 | CC(C)=CCOc1cc2ccc(=O)oc2cc1OCC=C(C)C [Compound 50, 6,7-diprenoxycoumarin] |  | enhanced | confirmed | enhanced | increased
